{
  "source": "patent US5037578A",
  "about": "“O,O'-bridged oligophenylene laser dyes and dyestuff lasers and method of lasing therewith” (Exciton Chemical Company, priority 1990, dated 1991)",
  "key": {"[1]": {"experiment": "Solubilities of o,o'-bridged oligophenylenes in laser solvents at 21° C.", "type": "physicochemical", "conditions": "for Solubility: 21° C.; for Solubility compared with 2,2'-bifluorene: in solvents (Table I)", "from_the_text": "It is further discovered that when substituent X of the bridged biphenyl moiety is a carbon atom which is free of benzylic hydrogens, the laser dye is relatively less reactive and relatively more soluble. In other words, it has been realized that the absence of benzylic hydrogens from the bridged carbon substituent, that is, the carbon substituent that is bonded directly to the phenyl moieties to form the bridge, renders the organic laser dyes of the present invention less reactive and more soluble. In view of the present disadvantages concerning the solubility of organic laser dyes available hitherto, this is quite significant."}, "[2]": {"experiment": "Fluorescence emission spectrum and Fluorescence Quantum Efficiency", "type": "physicochemical", "conditions": "for Fluorescence emission intensity, first peak / Fluorescence emission intensity, second peak / Fluorescence emission peak, first / Fluorescence emission peak, second: slits 2 nm", "from_the_text": "The fluorescence emission spectrum for the dye 9,9-dipropylfluorene as illustrated in FIG. 1 was detected on a Perkin-Elmer MPF-44A, the slits were set at 2 nm and the excitation light was at 265 nm. The Fluorescence Quantum Efficiency (FQE) was about the same as that of fluorene - 55%; and the fluorescence emission peaks at 306 nm(intensity 86) and […](intensity 67) were also similar to those of fluorene [the fluorescence emission spectrum for fluorene as illustrated in FIG. 5 was also detected on a Perkin-Elmer MPF-44A, the slits were set at 2 nm and the excitation light was at 265 nm and the fluorescence emission peaks for fluorene are at 303 nm(intensity 93) and 311 nm(intensity 73)].\nThis dye had two fluorescence peaks of almost equal intensity at 360 nm(intensity 33) and 378 nm(intensity 28) as illustrated in FIG. 2. […] The fluorescence emission spectrum of the dye 9,9,9',9'-tetrapropyl-2,2'-bifluorene was detected on a Perkin-Elmer MPF-44A, the slits were set at 2 nm and the excitation light was at 331 nm.\nThis dye had fluorescence peaks at 324 nm(intensity 90) and 338 nm(intensity 76) and a reported fluorescence quantum yield of 100% in cyclohexane as illustrated in FIG. 3. […] The fluorescence emission spectrum for the dye 3-phenyldibenzofuran as illustrated in FIG. 3 was detected on a Perkin-Elmer MPF-44A, the slits were set at 2 nm and the excitation light was at 301 nm.\nThe dye, 3,3'-bi(dibenzofuran), was prepared in accordance with the process disclosed in H.O. Wirth, G. Waese and W. Kern: Synthese Und Eigenschaften Von: Oxydo-p-oligophenylenen. Makromol. Chem. 86: 139(1965) which is incorporated herein in its entirety by reference, and was purified by extraction from Brockmann Activity I alumina with chloroform in an Ace-Kauffman column to give a white solid, mp 249.5°-250.5° C. (lit.mp 252.5° C.). This dye had two fluorescence peaks of almost equal intensity at 353 nm(intensity 47) and 369 nm(intensity 30) in cyclohexane as illustrated in FIG. 4."}, "[3]": {"conditions": "cyclohexane; reported; cited from earlier work"}},
  "note": "Values joined by “and” are separate entries in the source; they are usually repeats but may differ in a detail not shown here. Equal entries are not always repeated.",
  "data": [
    {"compound": "c1ccc2c(c1)Cc1cc(-c3ccc4c(c3)Cc3ccccc3-4)ccc1-2", "note": "[2,2'-bifluorene]", "values": [
      {"measurement": "Solubility", "setting": "[1]; 1,2-dichloroethane", "result": "1.0 × 10^-3 M and 0.33 g/l"},
      {"measurement": "Solubility", "setting": "[1]; 95% ethanol", "result": 0.4, "unit": "g/L"},
      {"measurement": "Solubility", "setting": "[1]; 100% ethanol", "result": "2.3 × 10^-5 M and 0.0077 g/l"},
      {"measurement": "Solubility", "setting": "[1]; Toluene", "result": "1.3 × 10^-3 M and 0.4 g/l"},
      {"measurement": "Solubility", "setting": "[1]; cyclohexane", "result": "3.0 × 10^-5 M and 0.01 g/l"}
    ]},
    {"compound": "c1ccc2c(c1)oc1cc(-c3ccc4c(c3)oc3ccccc34)ccc12", "note": "[3,3'-bi(dibenzofuran)]", "values": [
      {"measurement": "Solubility", "setting": "[1]; 95% ethanol", "result": "1.0 × 10^-2 M and 2.5 g/l"},
      {"measurement": "Solubility", "setting": "[1]; 100% ethanol", "result": "6.3 × 10^-5 M and 0.021 g/l"},
      {"measurement": "Solubility", "setting": "[1]; DMF", "result": "2.5 × 10^-3 M and 0.84 g/l"},
      {"measurement": "Solubility", "setting": "[1]; Methanol", "result": "2.1 × 10^-5 M and 0.007 g/l"},
      {"measurement": "Solubility", "setting": "[1]; Toluene", "result": "2.4 × 10^-3 M and 0.8 g/l"},
      {"measurement": "Solubility", "setting": "[1]; cyclohexane", "result": "9.0 × 10^-5 M and 0.030 g/l"},
      {"measurement": "Solubility", "setting": "[1]; dioxane", "result": "1.3 × 10^-3 M and 0.43 g/l"},
      {"measurement": "Solubility compared with 2,2'-bifluorene", "setting": "[1]", "result": "greater than that of 2,2'-bifluorene"},
      {"measurement": "Fluorescence emission spectrum compared with dye of Example 2", "setting": "[2]", "result": "almost superimposable on that of the dye discussed in Example 2"},
      {"measurement": "Fluorescence emission intensity, first peak", "setting": "[2]; excitation 323 nm, cyclohexane", "result": 47},
      {"measurement": "Fluorescence emission intensity, second peak", "setting": "[2]; excitation 323 nm, cyclohexane", "result": 30},
      {"measurement": "Fluorescence emission peak, first", "setting": "[2]; excitation 323 nm, cyclohexane", "result": 353, "unit": "nm"},
      {"measurement": "Fluorescence emission peak, second", "setting": "[2]; excitation 323 nm, cyclohexane", "result": 369, "unit": "nm"}
    ]},
    {"compound": "c1ccc(-c2ccc3c(c2)oc2ccccc23)cc1", "note": "[3-phenyldibenzofuran]", "values": [
      {"measurement": "Solubility", "setting": "[1]; 50% ethanol", "result": "8.4 × 10^-3 M and 2.0 g/l"},
      {"measurement": "Solubility", "setting": "[1]; 95% ethanol", "result": "1.1 × 10^-2 M and 2.7 g/l"},
      {"measurement": "Solubility", "setting": "[1]; 100% ethanol", "result": "1.6 × 10^-2 M and 3.9 g/l"},
      {"measurement": "Solubility", "setting": "[1]; Methanol", "result": "1.2 × 10^-2 M and 2.9 g/l"},
      {"measurement": "Solubility", "setting": "[1]; cyclohexane", "result": "> 2.44 g/l and > 1.0 × 10^-2 M"},
      {"measurement": "Solubility compared with p-terphenyl", "setting": "[1]; in all cases (See Table I)", "result": "much greater than that of p-terphenyl"},
      {"measurement": "Solubility compared with p-terphenyl", "setting": "[1]; methanol, 50% ethanol, 95% ethanol and absolute ethanol", "result": "much more soluble"},
      {"measurement": "Fluorescence quantum yield", "setting": "[3]", "result": 100, "unit": "%"},
      {"measurement": "Fluorescence emission intensity, first peak", "setting": "[2]; excitation 301 nm, cyclohexane", "result": 90},
      {"measurement": "Fluorescence emission intensity, second peak", "setting": "[2]; excitation 301 nm, cyclohexane", "result": 76},
      {"measurement": "Fluorescence emission peak, first", "setting": "[2]; excitation 301 nm, cyclohexane", "result": 324, "unit": "nm"},
      {"measurement": "Fluorescence emission peak, second", "setting": "[2]; excitation 301 nm, cyclohexane", "result": 338, "unit": "nm"},
      {"measurement": "FQE in methanol compared with cyclohexane", "setting": "[2]; methanol", "result": "the same in methanol as in cyclohexane"}
    ]},
    {"compound": "CCn1c2ccccc2c2ccc(-c3ccc4c5ccccc5n(CC)c4c3)cc21", "note": "[9,9'-diethyl-2,2'-bicarbazole]", "values": [
      {"measurement": "Violet fluorescence compared with compounds of Examples 2 and 4", "setting": "[2]; in alcohols", "result": "brighter violet fluorescence in alcohols than the compounds of Examples 2 and 4"}
    ]},
    {"compound": "CCCC1(CCC)c2ccccc2-c2ccc(-c3ccc4c(c3)C(CCC)(CCC)c3ccccc3-4)cc21", "note": "[9,9,9',9'-tetrapropyl-2,2'-bifluorene]", "values": [
      {"measurement": "Solubility", "setting": "[1]; 100% ethanol", "result": "7.8 × 10^-4 M and 0.39 g/l"},
      {"measurement": "Solubility", "setting": "[1]; Methanol", "result": "3.4 × 10^-4 M and 0.17 g/l"},
      {"measurement": "Solubility", "setting": "[1]; cyclohexane", "result": "2.0 × 10^-2 M and 10 g/l"},
      {"measurement": "Solubility", "setting": "[1]; dioxane", "result": "6.5 × 10^-3 M and 3.2 g/l"},
      {"measurement": "Solubility compared with 2,2'-bifluorene", "setting": "[1]", "result": "more soluble than 2,2'-bifluorene"},
      {"measurement": "Fluorescence emission intensity, first peak", "setting": "[2]; excitation 331 nm", "result": 33},
      {"measurement": "Fluorescence emission intensity, second peak", "setting": "[2]; excitation 331 nm", "result": 28},
      {"measurement": "Fluorescence emission peak, first", "setting": "[2]; excitation 331 nm", "result": 360, "unit": "nm"},
      {"measurement": "Fluorescence emission peak, second", "setting": "[2]; excitation 331 nm", "result": 378, "unit": "nm"}
    ]},
    {"compound": "CCCC1(CCC)c2ccccc2-c2ccccc21", "note": "[9,9-dipropylfluorene]", "values": [
      {"measurement": "Fluorescence Quantum Efficiency (FQE)", "setting": "[2]", "result": "~55", "unit": "%"},
      {"measurement": "Fluorescence emission intensity, first peak", "setting": "[2]; excitation 265 nm", "result": 86},
      {"measurement": "Fluorescence emission intensity, second peak", "setting": "[2]; excitation 265 nm", "result": 67},
      {"measurement": "Fluorescence emission peak, first", "setting": "[2]; excitation 265 nm", "result": 306, "unit": "nm"}
    ]},
    {"compound": "c1ccc2c(c1)Cc1ccccc1-2", "note": "[fluorene, reference compound]", "values": [
      {"measurement": "Fluorescence Quantum Efficiency (FQE)", "setting": "[2]", "result": 55, "unit": "%"},
      {"measurement": "Fluorescence emission intensity, first peak", "setting": "[2]; excitation 265 nm", "result": 93},
      {"measurement": "Fluorescence emission intensity, second peak", "setting": "[2]; excitation 265 nm", "result": 73},
      {"measurement": "Fluorescence emission peak, first", "setting": "[2]; excitation 265 nm", "result": 303, "unit": "nm"},
      {"measurement": "Fluorescence emission peak, second", "setting": "[2]; excitation 265 nm", "result": 311, "unit": "nm"}
    ]},
    {"compound": "c1ccc(-c2ccc(-c3ccc(-c4ccccc4)cc3)cc2)cc1", "note": "[quaterphenyl, reference compound]", "values": [
      {"measurement": "Solubility", "setting": "[1]; Toluene", "result": "~1.3 × 10^-3 M and ~0.4 g/l"}
    ]}
  ]
}
